{"source": "patent US7781580B2", "about": "“Stilbene derivatives as new cancer therapeutic agents” (Virginia Commonwealth University, priority 2007, dated 2010)", "key": {"[1]": {"tested_on": "UCI101 ovarian cancer cells", "test": "Western blot of signal transduction events, UCI101", "format": "cell-based", "procedure,_shortened": "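UCI101 cells exposed to 0.1 μM compound for 0, 4, 8, 16 and 36 h, then harvested and analysed by Western blot. Probes covered G2-M regulators Cdc2, Cdc25c and BubR1, plus Akt phosphorylation.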"}, "[2]": {"tested_on": "c-kit-positive progenitor cells (engraftment)", "test": "bone marrow transplantation of stilbene-treated progenitor cells", "format": "in vivo, mice", "settings": "cells incubated at 0.1 or 0.5 μM for 16 hours", "method": "FIG. 16. (a) Effect of stilbenes in normal bone marrow progenitor cells. c-kit-positive bone marrow mononuclear cells were isolated for incubation with stilbenes 4a or 4c at 0.1 or 0.5 […] for 16 hours. Cells were harvested for fixation and PI staining. Cell cycle analysis and quantification of the subG0/1 population were analyzed by FACScan flow cytometry. The percentages of the apoptotic population were indicated. Shown are the representatives of two independent experiments. (b) Effect of stilbenes in HL60 cells as positive control. HL60 cells were treated with stilbenes 4a or 4c in the same medium as the positive control. (c) Colony forming assay of the stilbene-treated c-kit-positive cells. […] Cells were incubated for 14 days and the grossly visible colonies were counted. […] Mice were monitored for survival and lineage-specific donor engraftment by flow cytometry analysis of peripheral blood. […]\nC57BL/6J (H2b, CD45.2) mice served as bone marrow donors and were between 6-10 weeks of age. […] Peripheral blood engraftment in recipient mice was assessed by flow cytometry analysis for CD3+ (145-2C11; BD Biosciences, San Jose, Calif.) T-cells, B220+ (RA3-6B2) B-cells, Mac1+ (M1/70.15) monocytes, and Gr1+ (8C5) granulocytes and distinguished between donor versus recipient with anti-CD45.1 (A20) and anti-CD45.2 (104) monoclonal antibodies."}, "[3]": {"tested_on": "tubulin (colchicine site)", "test": "[3H]-colchicine competition for binding tubulin", "settings": "20 min, 37° C.", "method": "FIG. 3a-d. […] (a) Effect of stilbene 4a. Pure tubulin was incubated with various concentrations of stilbene 4a, 10 μM nocodazole, and 10 μM paclitaxel in the polymerization buffer. The OD at 340 nm was monitored every minute by SpectraMAX 250 and plotted against time. (b) Effect of stilbene 4c. (c) Comparison of same concentrations of stilbenes 4a, 4a trans, 4c and 4c trans with control. […] The radioactivity of the tubulin was counted. […] All experiments were done in triplicates.\nTubulin retained in the Microcon was washed three times with PBS. The radioactivity of the final concentrated tubulin was determined by a scintillation counter."}, "[4]": {"test": "water solubility of stilbene and carbamate prodrug (salts and free base)", "format": "physicochemical", "settings": "for solubility: water, 20 °C, 20° C.", "method": "Stilbene prodrugs may be made by attaching to a stilbene derivative of interest (e.g. a stilbene derivative with anti-tumor activity), chemical groups (or moieties) that render the stilbene derivative more water soluble than before such a modification is carried out. By “water soluble” we mean that more than 20 mg compound can be fully dissolved in 1 mL of water. Further, the chemical groups that are attached to the stilbene derivative to make the derivative water soluble are labile (i.e. removable) in that, upon exposure to in vitro or in vivo hydrolyzing conditions, the chemical groups are removed or dissociated from the stilbene derivative by hydrolysis, releasing the active, anti-tumor form of the stilbene derivative. The chemical groups which are attached may themselves be biologically active, and are, at least, not biologically injurious to cells or mammals. […] As illustrated, morfolinoethyl-urea, morfolinoethyl-carbamate and triethylene glycol (TEG) groups (5a, 5b, 5c, respectively) may be used for this purpose."}, "UCI101 cells": {"tested_on": "UCI101 cells", "test": "phospho-histone 3B mitotic marker staining", "format": "cell-based", "method": "(a) In vitro sensitivity of UCI101 cells toward three potential stilbene prodrugs, 5a-c, was tested in 96-well plates using Alamar Blue™ assays to determine cell growth inhibition. […] (b) 5b induces cell cycle change and apoptosis in UCI101 cells. Cells were incubated with 5b at 1, 3, 10 μM for 16 hours followed by PI staining and flow cytometry analysis. A subG0/1 population, representing apoptotic cells, appeared along with a decrease of the G1/G2 ratio after cells were treated with 3 μM 5b. Higher concentration (10 μM) of 5b completely killed cells, as was the case with stilbene 4a at […]. (c) Cells treated with stilbene 4a and 5b were stained with phospho-histone 3B, a mitotic marker. The positive signals of phospho-histone 3B were shown in green and nuclei were stained with DAPI in blue. […] (d) In vivo efficacy of 5b compared with stilbene 4a. Nude mice were injected with UCI101 ovarian cancer cells and treated with 7 doses of 5b,c or stilbene 4a every 2-3 days. Tumor volume was calculated and plotted against days.\nThe in vitro efficacy of these three compounds was tested in UCI101 cells in 96-well plate format and stained with Alamar blue™, The growth suppression was calculated as was done similarly to other test compounds. […] A dose response was then performed with various concentrations of 5b in vitro. […]"}}, "note": "Where two headings read alike, the source gives them in different places.", "data": [{"smiles": "COc1cc(/C=C\\c2ccc(OC)c(N)c2)cc(OC)c1", "note": "[4a, (Z)-5-[2-(3,5-Dimethoxy-phenyl)-vinyl]-2-methoxy-phenylamine]", "values": [{"measurement": "phosphorylation of Stat3", "setting": "[1]; 0.1 μM", "value": "transient increase in phosphorylation at 4 and 8 hours"}, {"measurement": "phosphorylation of Cdc2 at Tyr15", "setting": "[1]; 0.1 μM, 16 hours", "value": "decreased dramatically"}, {"measurement": "phosphorylation of Chk1", "setting": "[1]; 36 hours", "value": "increased uniquely at 36 hours"}, {"measurement": "radioprotection of lethally irradiated mice by treated progenitor cells", "setting": "[2]", "value": "all mice were rescued from lethal irradiation"}, {"measurement": "competition with [3H]-colchicine for tubulin", "setting": "[3]", "value": "dose-dependent suppression of tubulin-colchicine interaction"}, {"measurement": "water solubility (in words)", "setting": "[4]", "value": "limited solubility"}, {"measurement": "solubility", "setting": "[4]; HCl salt, read-out: water solubility, x HCl", "value": 6000, "unit": "µg/mL"}, {"measurement": "solubility", "setting": "[4]; free base, read-out: water solubility, Free base", "value": "< 1000", "unit": "µg/mL"}, {"measurement": "solubility", "setting": "[4]; oxalate salt, read-out: water solubility, x (COOH)2", "value": "< 1000", "unit": "µg/mL"}, {"measurement": "phospho-histone 3B positive cells", "setting": "UCI101 cells", "value": "dramatic increase in positive cells"}]}]}
